Patent publication US6204282A, “Benzimidazole compounds that are vitronectin receptor antagonists” (Schering Corporation, priority 1999, dated 2001)

Molecular target: αllbβ3 receptor (Homo sapiens, UniProt P05106+P08514)
Experiment: similar competitive assay with purified αllbβ3 receptor and 125I-echistatin (specificity index versus αvβ3)
Type: binding
Conditions: IC50 αllbβ3 / IC50 αvβ3
Source text: The specificity index, which is a measure of the relative binding affinity for αvβ3 versus αllbβ3, may be determined by dividing the IC50 value for αllbβ3by the IC50 value for αvβ3.

SMILES | SPECIFICITY αIIb β3/αvβ3 (specificity index)
CCCC(=O)N(Cc1ccc(C(=O)NC[C@H](NC(=O)OCc2ccccc2)C(=O)O)cc1)Cc1nc2ccccc2[nH]1 [Example 5-11] | 70
O=C(N[C@@H](CNC(=O)c1ccc(CN(Cc2nc3ccccc3[nH]2)C(=O)C(F)(F)F)cc1)C(=O)O)OCc1ccccc1 [Example 5-12] | 87
CC(C)NC(=O)N(Cc1ccc(C(=O)NC[C@H](NC(=O)OCc2ccccc2)C(=O)O)cc1)Cc1nc2ccccc2[nH]1 [Example 5-30] | 296
CN(C)C(=O)N(Cc1ccc(C(=O)NC[C@H](NC(=O)OCc2ccccc2)C(=O)O)cc1)Cc1nc2ccccc2[nH]1 [Example 5-41] | 19
COCC(=O)N(Cc1ccc(C(=O)NC(CC(=O)O)c2ccccc2)cc1)Cc1nc2ccccc2[nH]1 (stereo not shown) [Example 5-67] | 0.5
O=C(O)CC(NC(=O)c1ccc(CN(Cc2nc3ccccc3[nH]2)C(=O)CCc2ccccc2)cc1)c1ccccc1 (stereo not shown) [Example 5-68] | 0.4
O=C(O)CC(NC(=O)c1ccc(CN(Cc2nc3ccccc3[nH]2)C(=O)CCC2CCCC2)cc1)c1ccccc1 (stereo not shown) [Example 5-69] | 0.4
O=C(NC(CNC(=O)c1ccc(CNCCc2nc3ccccc3[nH]2)cc1)C(=O)O)OCc1ccccc1 (stereo not shown) [Example 5-70] | 0.2
CC(=O)N(CCc1nc2ccccc2[nH]1)Cc1ccc(C(=O)NCC(NC(=O)OCc2ccccc2)C(=O)O)cc1 (stereo not shown) [Example 5-71] | 0.3
COCC(=O)N(CCc1nc2ccccc2[nH]1)Cc1ccc(C(=O)NCC(NC(=O)OCc2ccccc2)C(=O)O)cc1 (stereo not shown) [Example 5-72] | 0.5
O=C(NC(CNC(=O)c1ccc(CN(CCc2nc3ccccc3[nH]2)C(=O)CCc2ccccc2)cc1)C(=O)O)OCc1ccccc1 (stereo not shown) [Example 5-73] | 0.7
O=C(NC(CNC(=O)c1ccc(CN(CCc2nc3ccccc3[nH]2)C(=O)CCC2CCCC2)cc1)C(=O)O)OCc1ccccc1 (stereo not shown) [Example 5-74] | 0.6
CC(NCc1ccc(C(=O)NC[C@H](NC(=O)OCc2ccccc2)C(=O)O)cc1)c1nc2ccccc2[nH]1 (stereo partly shown) [Example 5-75] | 10.2
CC(=O)N(Cc1ccc(C(=O)NC[C@H](NC(=O)OCc2ccccc2)C(=O)O)cc1)C(C)c1nc2ccccc2[nH]1 (stereo partly shown) [Example 5-76] | 6.7
COCC(=O)N(Cc1ccc(C(=O)NC[C@H](NC(=O)OCc2ccccc2)C(=O)O)cc1)C(C)c1nc2ccccc2[nH]1 (stereo partly shown) [Example 5-77] | 12.4
CC(c1nc2ccccc2[nH]1)N(Cc1ccc(C(=O)NC[C@H](NC(=O)OCc2ccccc2)C(=O)O)cc1)C(=O)CCc1ccccc1 (stereo partly shown) [Example 5-78] | 33.9
CC(c1nc2ccccc2[nH]1)N(Cc1ccc(C(=O)NC[C@H](NC(=O)OCc2ccccc2)C(=O)O)cc1)C(=O)CCC1CCCC1 (stereo partly shown) [Example 5-79] | 19.0
COCC(=O)N(Cc1ccc(C(=O)NC[C@H](NS(=O)(=O)c2ccccc2)C(=O)O)cc1)Cc1nc2ccccc2[nH]1 [Example 5-80] | 11

SMILES | SPECIFICITY αIIb β3/αvβ3 (specificity index)
O=C(NC[C@H](NS(=O)(=O)c1ccccc1)C(=O)O)c1ccc(CN(Cc2nc3ccccc3[nH]2)C(=O)NC2CCCCC2)cc1 [Example 5-81] | 8.0
CCCCOC(=O)N[C@@H](CNC(=O)c1ccc(CN(Cc2nc3ccccc3[nH]2)C(=O)NC2CCCCC2)cc1)C(=O)O [Example 5-82] | 1259
CCCCOC(=O)N[C@@H](CNC(=O)c1ccc(CN(Cc2nc3ccccc3[nH]2)C(=O)Nc2ccccc2)cc1)C(=O)O [Example 5-83] | 1689
CCCCOC(=O)N[C@@H](CNC(=O)c1ccc(CN(Cc2nc3ccccc3[nH]2)C(=O)NC(C)C)cc1)C(=O)O [Example 5-84] | 712
CCCCOC(=O)N[C@@H](CNC(=O)c1ccc(CN(Cc2nc3ccccc3[nH]2)C(=O)NC(C)(C)C)cc1)C(=O)O [Example 5-85] | 1223
CCCCOC(=O)N[C@@H](CNC(=O)c1ccc(CN(Cc2nc3ccccc3[nH]2)C(=O)NCC(=O)OCC)cc1)C(=O)O [Example 5-86, N^3-[4-[(benzimnidazol-2-yl)methyl][[(ethoxycarbonylmethyl)amino]-carbonyl]aminomethylbenzoyl]-N^2-(n-butoxycarbonyl)-L-2,3-diaminopropionic acid] | 793
CCCCOC(=O)N[C@@H](CNC(=O)c1ccc(CN(Cc2nc3ccccc3[nH]2)C(=O)N[C@@H](CCSC)C(=O)OCC)cc1)C(=O)O [Example 5-87] | 1569
CCCCOC(=O)N[C@@H](CNC(=O)c1ccc(CN(Cc2nc3ccccc3[nH]2)C(=O)Nc2ccc(F)cc2)cc1)C(=O)O [Example 5-88] | 1657
CCCCOC(=O)N[C@@H](CNC(=O)c1ccc(CN(Cc2nc3ccccc3[nH]2)C(=O)N[C@@H](C)C(=O)OCC)cc1)C(=O)O [Example 5-89] | 1094
CCCCOC(=O)N[C@@H](CNC(=O)c1ccc(CN(Cc2nc3ccccc3[nH]2)C(=O)N[C@H](C(=O)OCC)C(C)C)cc1)C(=O)O [Example 5-90] | 1697
CCCCOC(=O)N[C@@H](CNC(=O)c1ccc(CN(Cc2nc3ccccc3[nH]2)C(=O)Nc2ccc(C(=O)OCC)cc2)cc1)C(=O)O [Example 5-91] | 1183
Cn1c(CN(Cc2ccc(C(=O)NC[C@H](NC(=O)OCc3ccccc3)C(=O)O)cc2)C(=O)NC2CCCCC2)nc2ccccc21 [Example 5-92] | 174
CC(C)NC(=O)N(Cc1ccc(C(=O)NC[C@H](NC(=O)OCc2ccccc2)C(=O)O)cc1)Cc1nc2ccccc2n1C [Example 5-93] | 124
O=C(N[C@@H](CNC(=O)c1ccc(CN(Cc2nc3cc(Cl)ccc3[nH]2)C(=O)NC2CCCCC2)cc1)C(=O)O)OCc1ccccc1 [Example 5-94] | 399
CC(C)NC(=O)N(Cc1ccc(C(=O)NC[C@H](NC(=O)OCc2ccccc2)C(=O)O)cc1)Cc1nc2cc(Cl)ccc2[nH]1 [Example 5-95] | 775
O=C(O)CNC(=O)N(Cc1ccc(C(=O)NC[C@H](NC(=O)OCc2ccccc2)C(=O)O)cc1)Cc1nc2ccccc2[nH]1 [Example 5-96, N^3-[4-[(Benzimidazol-2-yl)methyl][[(carboxymethyl)amino]carbonyl]aminomethylbenzoyl]-N^2 -Cbz-L-2,3-diaminopropionic acid] | 528
CCCCOC(=O)N[C@@H](CNC(=O)c1ccc(CN(Cc2nc3ccccc3[nH]2)C(=O)NCC(=O)O)cc1)C(=O)O [Example 5-97, N^3-[4-[(Benzimidazol-2-yl)methyl][[(carboxymethyl)amino]carbonyl]aminomethylbenzoyl]-N^2-(n-butoxycarbonyl)-L-2,3-diaminopropionic acid] | 2600

Molecular target: T1, αvβ3 receptor (Homo sapiens, UniProt P05106+P06756)
T1 construct: αvβ3 receptor (purified from human placenta); from tissue; host or cells: human placenta
Experiment: competition radioligand binding assay, 125I-echistatin to purified αvβ3 receptor
Conditions: inhibition of specific binding of 125I-echistatin (0.05 nM), 3 hour incubation at room temperature

SMILES | IC50 [nM]
O=C(N[C@@H](CNC(=O)c1ccc(CNCc2nc3ccccc3[nH]2)cc1)C(=O)O)OCc1ccccc1 [Example 5-1] | 5.4
O=C(N[C@@H](CNC(=O)c1ccc(CN(Cc2nc3ccccc3[nH]2)C(=O)c2ccc(Cl)cc2)cc1)C(=O)O)OCc1ccccc1 [Example 5-2] | 6.5
CC(=O)N(Cc1ccc(C(=O)NC[C@H](NC(=O)OCc2ccccc2)C(=O)O)cc1)Cc1nc2ccccc2[nH]1 [Example 5-3] | 1.9
O=C(N[C@@H](CNC(=O)c1ccc(CN(Cc2nc3ccccc3[nH]2)C(=O)c2ccc3c(c2)OCO3)cc1)C(=O)O)OCc1ccccc1 [Example 5-4] | 2.9
COCC(=O)N(Cc1ccc(C(=O)NC[C@H](NC(=O)OCc2ccccc2)C(=O)O)cc1)Cc1nc2ccccc2[nH]1 [Example 5-5] | 0.42
O=C(N[C@@H](CNC(=O)c1cccc(CNCc2nc3ccccc3[nH]2)c1)C(=O)O)OCc1ccccc1 [Example 5-6] | ~500
O=C(N[C@@H](CNC(=O)c1cccc(CN(Cc2nc3ccccc3[nH]2)C(=O)c2ccc(Cl)cc2)c1)C(=O)O)OCc1ccccc1 [Example 5-7] | ~500
CC(=O)N(Cc1cccc(C(=O)NC[C@H](NC(=O)OCc2ccccc2)C(=O)O)c1)Cc1nc2ccccc2[nH]1 [Example 5-8] | ~500
O=C(N[C@@H](CNC(=O)c1cccc(CN(Cc2nc3ccccc3[nH]2)C(=O)c2ccc3c(c2)OCO3)c1)C(=O)O)OCc1ccccc1 [Example 5-9] | ~500
COCC(=O)N(Cc1cccc(C(=O)NC[C@H](NC(=O)OCc2ccccc2)C(=O)O)c1)Cc1nc2ccccc2[nH]1 [Example 5-10] | ~500
CCCC(=O)N(Cc1ccc(C(=O)NC[C@H](NC(=O)OCc2ccccc2)C(=O)O)cc1)Cc1nc2ccccc2[nH]1 [Example 5-11] | 3.4
O=C(N[C@@H](CNC(=O)c1ccc(CN(Cc2nc3ccccc3[nH]2)C(=O)C(F)(F)F)cc1)C(=O)O)OCc1ccccc1 [Example 5-12] | 5.6
CC(C)NC(=O)N(Cc1ccc(C(=O)NC[C@H](NC(=O)OCc2ccccc2)C(=O)O)cc1)Cc1nc2ccccc2[nH]1 [Example 5-30] | 2.3
CN(C)C(=O)N(Cc1ccc(C(=O)NC[C@H](NC(=O)OCc2ccccc2)C(=O)O)cc1)Cc1nc2ccccc2[nH]1 [Example 5-41] | 2.8
